Measured values taken from ChEMBL document CHEMBL5247592, “Discovery of novel VEGFR-2-PROTAC degraders based on the localization of lysine residues via recruiting VHL for the treatment of gastric cancer” (Eur J Med Chem, 2022).
Activity calls are given as the source filed them. The calls are words filed in the database; no cut-off is given here.

Columns and labels:
HGC-27 [1] = assay: Antiproliferative activity against human HGC-27 cells assessed as inhibition of cell growth incubated for 72 hrs by MTT assay; type: functional, cell-based; details: HGC-27, 72 h
[2] = Cytotoxicity against HUVEC cells assessed as inhibition of cell growth incubated for 72 hrs by MTT assay; type: toxicity, cell-based; details: human
[3] = Cytotoxicity against human GES1 cells assessed as inhibition of cell growth incubated for 72 hrs by MTT assay; type: toxicity, cell-based
[4] = target: Vascular endothelial growth factor receptor 2 (Homo sapiens, UniProt P35968); assay: Inhibition of VEGFR2 (unknown origin) at 1 uM by caliper mobility shift assay relative to control
[5] = target: T1, von Hippel-Lindau disease tumor suppressor/Vascular endothelial growth factor receptor 2 (Homo sapiens, UniProt P35968+P40337); assay: PROTAC activity at VHL/VEGFR2 in HUVEC cells assessed as reduction in VEGFR2 protein level by measuring maximal efficacy at 0.007 to 10 uM incubated for 24 hrs by Western blot analysis relative to control; type: cell-based; details: dose 0.007-10 µM
[6] = target: T1, von Hippel-Lindau disease tumor suppressor/Vascular endothelial growth factor receptor 2; assay: PROTAC activity at VHL/VEGFR2 in human HGC-27 cells assessed as induction of VEGFR2 degradation at 1 uM measured after 4 hrs by Western blot analysis relative to control; type: cell-based
[7] = target: T1, von Hippel-Lindau disease tumor suppressor/Vascular endothelial growth factor receptor 2; assay: PROTAC activity at VHL/VEGFR2 in human HGC-27 cells assessed as induction of VEGFR2 degradation at 1 uM measured after 12 hrs by Western blot analysis relative to control; type: cell-based
[8] = target: T1, von Hippel-Lindau disease tumor suppressor/Vascular endothelial growth factor receptor 2; assay: PROTAC activity at VHL/VEGFR2 in human HGC-27 cells assessed as induction of VEGFR2 degradation at 1 uM measured after 24 hrs by Western blot analysis relative to control; type: cell-based
[9] = target: T1, von Hippel-Lindau disease tumor suppressor/Vascular endothelial growth factor receptor 2; assay: PROTAC activity at VHL/VEGFR2 in human HGC-27 cells assessed as residual activity by measuring VEGFR2 expression level at 1 uM incubated for 24 hrs followed by compound washout and measured after 8 hrs by Western blot analysis relative to control; type: cell-based
[10] = target: T1, von Hippel-Lindau disease tumor suppressor/Vascular endothelial growth factor receptor 2; assay: PROTAC activity at VHL/VEGFR2 in human HGC-27 cells assessed as residual activity by measuring VEGFR2 expression level at 1 uM incubated for 24 hrs followed by compound washout and measured after 36 hrs by Western blot analysis relative to control; type: cell-based
[11] = target: T1, von Hippel-Lindau disease tumor suppressor/Vascular endothelial growth factor receptor 2; assay: PROTAC activity at VHL/VEGFR2 in human HGC-27 cells assessed as residual activity by measuring VEGFR2 expression level at 1 uM incubated for 24 hrs followed by compound washout and measured after 12 hrs by Western blot analysis relative to control; type: cell-based
[12] = target: T1, von Hippel-Lindau disease tumor suppressor/Vascular endothelial growth factor receptor 2; assay: PROTAC activity at VHL/VEGFR2 in human HGC-27 cells assessed as induction of VEGRF2 protein degradation at 1 uM preincubated with 4-Amino-N-(6-(1-(2-((4-methyl-3-(trifluoromethyl)phenyl)amino)-2-oxoethyl)-1H-pyrazol-4-y1)-1H-indazol-3-Abenzamide for 2 hrs followed by compound addition and measured after 24 hrs by Western blot analysis; type: cell-based
[13] = target: T1, von Hippel-Lindau disease tumor suppressor/Vascular endothelial growth factor receptor 2; assay: PROTAC activity at VHL/VEGFR2 in human HGC-27 cells assessed as reduction in relative VEGRF2 expression level at 1 uM preincubated with VH032 for 2 hrs followed by compound addition and measured after 24 hrs by Western blot analysis; type: cell-based
[14] = Effect on VEGFR2 mRNA expression in human HGC-27 cells at 3.33 uM incubated for 24 hrs by qPCR analysis relative to control; type: functional
HGC-27 [15] = assay: Inhibition of colony formation in human HGC-27 cells at 1 to 3.33 uM incubated for 8 days by crystal violet staining based analysis relative to control; type: functional; details: dose 1-3.33 µM, time 8 day
HGC-27 [16] = assay: Inhibition of cell migration in human HGC-27 cells assessed as suppression of cell migration at 3.3 uM incubated for 6 hrs by wound healing assay relative to control; type: functional
HGC-27 [17] = assay: Inhibition of cell migration in human HGC-27 cells assessed as suppression of cell migration at 3.3 uM incubated for 24 hrs by wound healing assay relative to control; type: functional
HGC-27 [18] = assay: Antiinvasive activity in human HGC-27 cells assessed as reduction in number of invasive cells at 0.33 uM incubated for 24 hrs by transwell invasion assay (reference value: 118); type: functional
HGC-27 [19] = assay: Antiinvasive activity in human HGC-27 cells assessed as reduction in number of invasive cells at 1 uM incubated for 24 hrs by transwell invasion assay (reference value: 118); type: functional
HGC-27 [20] = assay: Induction of apoptosis in human HGC-27 cells assessed as necrotic cells at 0.1 uM incubated for 24 hrs by Annexin V-FITC/PI staining based analysis (reference value: 0.65 %); type: functional
HGC-27 [21] = assay: Induction of apoptosis in human HGC-27 cells assessed as viable cells at 0.33 uM incubated for 24 hrs by Annexin V-FITC/PI staining based analysis (reference value: 95.3%); type: functional; details: read-out: Activity
HGC-27 [22] = assay: Induction of apoptosis in human HGC-27 cells assessed as necrotic cells at 0.33 uM incubated for 24 hrs by Annexin V-FITC/PI staining based analysis (reference value: 0.65 %); type: functional
HGC-27 [23] = assay: Induction of apoptosis in human HGC-27 cells assessed as early apoptotic cells at 1 uM incubated for 24 hrs by Annexin V-FITC/PI staining based analysis (reference value: 1.7 %); type: functional
HGC-27 [24] = assay: Induction of apoptosis in human HGC-27 cells assessed as viable cells at 3.3 uM incubated for 24 hrs by Annexin V-FITC/PI staining based analysis (reference value: 95.3%); type: functional; details: read-out: Activity
HGC-27 [25] = assay: Induction of apoptosis in human HGC-27 cells assessed as early apoptotic cells at 3.3 uM incubated for 24 hrs by Annexin V-FITC/PI staining based analysis (reference value: 1.7 %); type: functional
HGC-27 [26] = assay: Induction of apoptosis in human HGC-27 cells assessed as late apoptotic cells at 3.3 uM incubated for 24 hrs by Annexin V-FITC/PI staining based analysis (reference value: 3%); type: functional
HGC-27 [27] = assay: Induction of apoptosis in human HGC-27 cells assessed as necrotic cells at 3.3 uM incubated for 24 hrs by Annexin V-FITC/PI staining based analysis (reference value: 0.65 %); type: functional
HGC-27 [28] = assay: Induction of cell cycle arrest in human HGC-27 cells assessed as G0/G1 phase cells at 0.033 uM incubated for 24 hrs by PI staining based flow cytometric analysis (reference value: 47.4%); type: functional
HGC-27 [29] = assay: Induction of cell cycle arrest in human HGC-27 cells assessed as G2/M phase cells at 0.033 uM incubated for 24 hrs by PI staining based flow cytometric analysis (reference value: 13.3%); type: functional
HGC-27 [30] = assay: Induction of cell cycle arrest in human HGC-27 cells assessed as G2/M phase cells at 0.1 uM incubated for 24 hrs by PI staining based flow cytometric analysis (reference value: 13.3%); type: functional
HGC-27 [31] = assay: Induction of cell cycle arrest in human HGC-27 cells assessed as G0/G1 phase cells at 0.33 uM incubated for 24 hrs by PI staining based flow cytometric analysis (reference value: 47.4%); type: functional
HGC-27 [32] = assay: Induction of cell cycle arrest in human HGC-27 cells assessed as G2/M phase cells at 0.33 uM incubated for 24 hrs by PI staining based flow cytometric analysis (reference value: 13.3%); type: functional
HGC-27 [33] = assay: Induction of cell cycle arrest in human HGC-27 cells assessed as G2/M phase cells at 3.33 uM incubated for 24 hrs by PI staining based flow cytometric analysis (reference value: 13.3%); type: functional

T1 sequence (P35968 20-1356 limits assumed): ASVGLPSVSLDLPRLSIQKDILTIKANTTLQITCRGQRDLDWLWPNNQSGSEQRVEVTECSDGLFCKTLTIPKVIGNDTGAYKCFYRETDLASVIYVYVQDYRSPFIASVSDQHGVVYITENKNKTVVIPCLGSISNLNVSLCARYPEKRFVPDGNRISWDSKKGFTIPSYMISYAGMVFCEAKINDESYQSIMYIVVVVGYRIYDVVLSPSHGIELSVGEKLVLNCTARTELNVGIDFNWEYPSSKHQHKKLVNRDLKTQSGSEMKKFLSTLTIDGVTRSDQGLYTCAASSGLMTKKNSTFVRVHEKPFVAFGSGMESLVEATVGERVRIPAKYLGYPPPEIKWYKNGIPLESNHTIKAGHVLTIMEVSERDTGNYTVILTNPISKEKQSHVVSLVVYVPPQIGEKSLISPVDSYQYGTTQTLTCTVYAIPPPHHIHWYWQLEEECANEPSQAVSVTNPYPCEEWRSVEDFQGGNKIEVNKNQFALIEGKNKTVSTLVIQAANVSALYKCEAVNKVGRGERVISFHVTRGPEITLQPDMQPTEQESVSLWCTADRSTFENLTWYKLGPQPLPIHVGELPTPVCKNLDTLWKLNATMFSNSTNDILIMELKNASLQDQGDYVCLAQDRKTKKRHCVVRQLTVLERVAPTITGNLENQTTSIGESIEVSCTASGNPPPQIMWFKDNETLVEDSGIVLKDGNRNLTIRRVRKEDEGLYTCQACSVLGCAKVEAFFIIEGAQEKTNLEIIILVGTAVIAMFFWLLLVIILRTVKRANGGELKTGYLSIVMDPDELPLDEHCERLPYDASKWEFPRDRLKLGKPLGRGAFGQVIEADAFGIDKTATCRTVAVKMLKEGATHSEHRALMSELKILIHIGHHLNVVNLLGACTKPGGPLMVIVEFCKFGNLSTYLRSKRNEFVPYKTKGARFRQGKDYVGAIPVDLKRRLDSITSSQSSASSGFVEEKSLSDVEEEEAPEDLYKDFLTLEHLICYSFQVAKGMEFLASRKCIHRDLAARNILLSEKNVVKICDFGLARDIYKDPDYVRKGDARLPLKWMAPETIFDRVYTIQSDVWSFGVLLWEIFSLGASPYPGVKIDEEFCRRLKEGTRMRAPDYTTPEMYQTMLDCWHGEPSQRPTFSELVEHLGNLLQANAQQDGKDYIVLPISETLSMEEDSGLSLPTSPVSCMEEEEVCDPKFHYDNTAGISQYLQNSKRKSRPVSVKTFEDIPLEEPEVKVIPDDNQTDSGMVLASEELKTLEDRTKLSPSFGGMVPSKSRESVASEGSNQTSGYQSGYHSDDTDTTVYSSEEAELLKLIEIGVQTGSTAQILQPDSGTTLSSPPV
T1 sequence (P40337 whole entry partner): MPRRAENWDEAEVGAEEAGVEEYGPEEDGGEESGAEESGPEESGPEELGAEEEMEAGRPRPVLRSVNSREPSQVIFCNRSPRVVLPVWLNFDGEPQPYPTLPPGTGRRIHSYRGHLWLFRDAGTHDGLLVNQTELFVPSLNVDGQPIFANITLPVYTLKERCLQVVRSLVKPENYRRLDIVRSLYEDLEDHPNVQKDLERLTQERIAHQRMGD
Vascular endothelial growth factor receptor 2, sequence (P35968 whole entry): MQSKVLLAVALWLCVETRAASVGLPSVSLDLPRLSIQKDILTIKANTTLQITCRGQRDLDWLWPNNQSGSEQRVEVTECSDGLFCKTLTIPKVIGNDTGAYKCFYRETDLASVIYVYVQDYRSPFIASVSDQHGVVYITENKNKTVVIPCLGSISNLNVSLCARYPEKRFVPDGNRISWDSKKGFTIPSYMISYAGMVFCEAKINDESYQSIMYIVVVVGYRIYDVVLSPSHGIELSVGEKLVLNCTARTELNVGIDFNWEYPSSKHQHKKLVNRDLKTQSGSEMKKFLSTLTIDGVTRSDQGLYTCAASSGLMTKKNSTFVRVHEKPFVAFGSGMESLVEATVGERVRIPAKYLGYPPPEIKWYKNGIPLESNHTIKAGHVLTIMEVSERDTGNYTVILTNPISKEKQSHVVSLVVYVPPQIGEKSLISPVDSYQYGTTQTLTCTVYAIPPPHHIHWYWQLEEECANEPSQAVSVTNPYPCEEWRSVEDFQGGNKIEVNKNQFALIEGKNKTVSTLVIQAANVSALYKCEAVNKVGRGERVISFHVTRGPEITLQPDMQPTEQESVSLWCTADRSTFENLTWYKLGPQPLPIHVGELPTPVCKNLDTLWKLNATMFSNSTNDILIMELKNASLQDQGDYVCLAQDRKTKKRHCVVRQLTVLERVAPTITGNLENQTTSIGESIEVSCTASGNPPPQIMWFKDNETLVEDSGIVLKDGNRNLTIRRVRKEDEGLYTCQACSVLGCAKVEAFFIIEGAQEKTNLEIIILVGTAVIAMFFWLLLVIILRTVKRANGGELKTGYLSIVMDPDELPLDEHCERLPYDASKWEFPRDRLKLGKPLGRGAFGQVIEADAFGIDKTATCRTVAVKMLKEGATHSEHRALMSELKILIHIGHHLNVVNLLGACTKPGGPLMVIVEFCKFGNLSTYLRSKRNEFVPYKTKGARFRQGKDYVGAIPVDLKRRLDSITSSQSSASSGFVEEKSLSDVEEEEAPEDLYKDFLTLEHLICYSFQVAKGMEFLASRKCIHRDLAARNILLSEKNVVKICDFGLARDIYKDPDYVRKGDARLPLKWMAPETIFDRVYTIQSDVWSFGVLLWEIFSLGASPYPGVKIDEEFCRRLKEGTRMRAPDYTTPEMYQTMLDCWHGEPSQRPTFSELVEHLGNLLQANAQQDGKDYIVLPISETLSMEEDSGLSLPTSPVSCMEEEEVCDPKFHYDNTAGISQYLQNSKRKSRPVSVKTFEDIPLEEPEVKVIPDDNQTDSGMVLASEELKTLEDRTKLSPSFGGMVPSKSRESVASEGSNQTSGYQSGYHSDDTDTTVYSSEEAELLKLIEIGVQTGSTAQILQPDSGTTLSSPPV

inhibition [4]: 97.5%
Emax [5]: 76.6%
Activity [6]: 16.9%
Activity [7]: 33.3%
Activity [8]: 51.4%
Activity [9]: 46%
Activity [10]: 131%
Activity [11]: 66.3%
Activity [12]: inactive
Activity [13]: inactive
SMILES: Cc1ccc(NC(=O)Cn2cc(-c3ccc4c(NC(=O)c5ccc(NC(=O)CCCCCCCCC(=O)N[C@H](C(=O)N6C[C@H](O)C[C@H]6C(=O)NCc6ccc(-c7scnc7C)cc6)C(C)(C)C)cc5)n[nH]c4c3)cn2)cc1C(F)(F)F
IC50 (HGC-27 [1]): 2.03 µM
IC50 at 72 h [2]: 7.07 µM
IC50 at 72 h [3]: 20 µM
Activity [14]: 105.3%
inhibition (INH) (HGC-27 [15]): 100%
inhibition at 3.3 µM (HGC-27 [16]): 12.3%
inhibition at 3.3 µM (HGC-27 [17]): 32.7%
Activity (HGC-27 [18]): 36
Activity (HGC-27 [19]): 11
Activity (HGC-27 [20]): 0.46%
viability at 0.33 µM (HGC-27 [21]): 89.1%
Activity (HGC-27 [22]): 0.96%
Activity (HGC-27 [23]): 8.6%
viability at 3.3 µM (HGC-27 [24]): 54%
Activity (HGC-27 [25]): 15%
Activity (HGC-27 [26]): 30.5%
Activity (HGC-27 [27]): 0.52%
Activity (HGC-27 [28]): 41.1%
Activity (HGC-27 [29]): 15.7%
Activity (HGC-27 [30]): 18.2%
Activity (HGC-27 [31]): 23.9%
Activity (HGC-27 [32]): 37.7%
Activity (HGC-27 [33]): 56.8%
